Where two headings read alike, the source gives them in different places.
Test system: patients with advanced TP53 wild-type (WT) leukemias
[1] = All subjects N = 37, All Grades

COc1ncc(-c2nc3c(n2C(C)C)[C@H](c2ccc(Cl)cc2)N(c2cc(Cl)cn(C)c2=O)C3=O)c(OC)n1 [HDM201, (S)-5-(5-Chloro-1-methyl-2-oxo-1,2-dihydro-pyridin-3-yl)-6-(4-chloro-phenyl)-2-(2,4-dimethoxy-pyrimidin-5-yl)-1-isopropyl-5,6-dihydro-1H-pyrrolo[3,4-d]imidazol-4-one]
3 (18.8) n (%): AE: Amylase Increased (Regimen 1A N = 16, All Grades)
1 (6.3) n (%): AE: Abdominal Discomfort (Regimen 1A N = 16, All Grades) | AE: Abdominal Pain Upper (Regimen 1A N = 16, All Grades) | AE: Acute Kidney Injury (Regimen 1A N = 16, All Grades) | AE: Arthralgia (Regimen 1A N = 16, All Grades) | AE: Atypical Pneumonia (Regimen 1A N = 16, All Grades) | AE: Balanitis Candida (Regimen 1A N = 16, All Grades) | AE: Blood Alkaline Phosphatase Increased (Regimen 1A N = 16, All Grades) | AE: Blood Bilirubin Increased (Regimen 1A N = 16, All Grades) | AE: Blood Creatinine Increased (Regimen 1A N = 16, All Grades) | AE: Blood Phosphorus Increased (Regimen 1A N = 16, All Grades) | AE: Blood Uric Acid Increased (Regimen 1A N = 16, All Grades) | AE: C-Reactive Protein Increased (Regimen 1A N = 16, All Grades) | AE: Cardiac Failure (Regimen 1A N = 16, All Grades) | AE: Chronic Graft Versus Host Disease (Regimen 1A N = 16, All Grades) | AE: Conjunctival Haemorrhage (Regimen 1A N = 16, All Grades) | AE: Cough (Regimen 1A N = 16, All Grades) | AE: Cystitis Viral (Regimen 1A N = 16, All Grades) | AE: Dyspepsia (Regimen 1A N = 16, All Grades) | AE: Dyspnoea (Regimen 1A N = 16, All Grades)
5 (13.5) n (%): AE: Asthenia [1]
1 (2.7) n (%): AE: Abdominal Discomfort [1] | AE: Abdominal Pain Upper [1] | AE: Arthralgia [1] | AE: Atypical Pneumonia [1] | AE: Balanitis Candida [1] | AE: Blood Alkaline Phosphatase Increased [1] | AE: Blood Uric Acid Increased [1] | AE: Bone Marrow Failure [1] | AE: Cardiac Failure [1] | AE: Cellulitis [1] | AE: Chronic Graft Versus Host Disease [1] | AE: Conjunctival Haemorrhage [1] | AE: Cough [1] | AE: Cystitis Viral [1] | AE: Cytomegalovirus Infection [1] | AE: Dyspnoea [1] | AE: Epistaxis [1] | AE: Graft Versus Host Disease [1] | AE: Haemoglobin Decreased [1] | AE: Hyperglycaemia [1] | AE: Hyperkalaemia [1] | AE: Hypoalbuminaemia [1] | AE: Hypokalaemia [1] | AE: Hypomagnesaemia [1] | AE: Hypotension [1] | AE: Infection [1] | AE: Infective Glossitis [1] | AE: Iron Overload [1] | AE: Lip Oedema [1] | AE: Macular Oedema [1] | AE: Oedema [1] | AE: Oedema Peripheral [1] | AE: Oral Disorder [1] | AE: Pain In Extremity [1] | AE: Pneumonia [1] | AE: Pollakiuria [1] | AE: Rash [1] | AE: Rash Erythematous [1] | AE: Rash Papular [1] | AE: Rectal Haemorrhage [1] | AE: Renal Failure [1] | AE: Skin Exfoliation [1] | AE: Subarachnoid Haemorrhage [1] | AE: Weight Decreased [1] | AE: Acute Kidney Injury (All subjects N = 37, Grade 3/4) | AE: Blood Creatinine Increased (All subjects N = 37, Grade 3/4) | AE: Blood Uric Acid Increased (All subjects N = 37, Grade 3/4) | AE: Bone Marrow Failure (All subjects N = 37, Grade 3/4) | AE: C-Reactive Protein Increased (All subjects N = 37, Grade 3/4) | AE: Cellulitis (All subjects N = 37, Grade 3/4) | AE: Chronic Graft Versus Host Disease (All subjects N = 37, Grade 3/4) | AE: Dyspnoea (All subjects N = 37, Grade 3/4) | AE: Gamma-Glutamyltransferase Increased (All subjects N = 37, Grade 3/4) | AE: Hyperkalaemia (All subjects N = 37, Grade 3/4) | AE: Hyperuricaemia (All subjects N = 37, Grade 3/4) | AE: Infection (All subjects N = 37, Grade 3/4) | AE: Macular Oedema (All subjects N = 37, Grade 3/4) | AE: Renal Failure (All subjects N = 37, Grade 3/4) | AE: Stomatitis (All subjects N = 37, Grade 3/4) | AE: Subarachnoid Haemorrhage (All subjects N = 37, Grade 3/4)
2 (12.5) n (%): AE: Abdominal Pain (Regimen 1A N = 16, All Grades) | AE: Asthenia (Regimen 1A N = 16, All Grades) | AE: Atrial Fibrillation (Regimen 1A N = 16, All Grades)
16 (43.2) n (%): AE: Anaemia [1]
6 (16.2) n (%): AE: Diarrhoea [1] | AE: Fatigue [1]
4: Cycle 1 DLTs (1A 400 mg (9 evaluable patients))
3 (8.1) n (%): AE: Acute Kidney Injury [1] | AE: Amylase Increased [1] | AE: Blood Creatinine Increased [1] | AE: Blood Phosphorus Increased [1] | AE: Hyperbilirubinaemia [1] | AE: Hyperphosphataemia [1] | AE: Lipase Increased [1] | AE: White Blood Cell Count Decreased (All subjects N = 37, Grade 3/4)
0 n (%): AE: Abdominal Discomfort (All subjects N = 37, Grade 3/4) | AE: Abdominal Pain (All subjects N = 37, Grade 3/4) | AE: Abdominal Pain Upper (All subjects N = 37, Grade 3/4) | AE: Amylase Increased (All subjects N = 37, Grade 3/4) | AE: Arthralgia (All subjects N = 37, Grade 3/4) | AE: Asthenia (All subjects N = 37, Grade 3/4) | AE: Atrial Fibrillation (All subjects N = 37, Grade 3/4) | AE: Atypical Pneumonia (All subjects N = 37, Grade 3/4) | AE: Balanitis Candida (All subjects N = 37, Grade 3/4) | AE: Blood Alkaline Phosphatase Increased (All subjects N = 37, Grade 3/4) | AE: Blood Bilirubin Increased (All subjects N = 37, Grade 3/4) | AE: Blood Phosphorus Increased (All subjects N = 37, Grade 3/4) | AE: Cardiac Failure (All subjects N = 37, Grade 3/4) | AE: Conjunctival Haemorrhage (All subjects N = 37, Grade 3/4) | AE: Constipation (All subjects N = 37, Grade 3/4) | AE: Cough (All subjects N = 37, Grade 3/4) | AE: Cystitis Viral (All subjects N = 37, Grade 3/4) | AE: Cytomegalovirus Infection (All subjects N = 37, Grade 3/4) | AE: Decreased Appetite (All subjects N = 37, Grade 3/4) | AE: Diarrhoea (All subjects N = 37, Grade 3/4) | AE: Dyspepsia (All subjects N = 37, Grade 3/4) | AE: Epistaxis (All subjects N = 37, Grade 3/4) | AE: Fatigue (All subjects N = 37, Grade 3/4) | AE: General Physical Health Deterioration (All subjects N = 37, Grade 3/4) | AE: Gingival Bleeding (All subjects N = 37, Grade 3/4) | AE: Graft Versus Host Disease (All subjects N = 37, Grade 3/4) | AE: Haemoglobin Decreased (All subjects N = 37, Grade 3/4) | AE: Headache (All subjects N = 37, Grade 3/4) | AE: Hyperbilirubinaemia (All subjects N = 37, Grade 3/4) | AE: Hyperglycaemia (All subjects N = 37, Grade 3/4) | AE: Hyperphosphataemia (All subjects N = 37, Grade 3/4) | AE: Hypoalbuminaemia (All subjects N = 37, Grade 3/4) | AE: Hypocalcaemia (All subjects N = 37, Grade 3/4) | AE: Hypokalaemia (All subjects N = 37, Grade 3/4) | AE: Hypomagnesaemia (All subjects N = 37, Grade 3/4) | AE: Hyponatraemia (All subjects N = 37, Grade 3/4) | AE: Hypotension (All subjects N = 37, Grade 3/4) | AE: Infective Glossitis (All subjects N = 37, Grade 3/4) | AE: Iron Overload (All subjects N = 37, Grade 3/4) | AE: Lip Oedema (All subjects N = 37, Grade 3/4) | AE: Malaise (All subjects N = 37, Grade 3/4) | AE: Mouth Haemorrhage (All subjects N = 37, Grade 3/4) | AE: Nausea (All subjects N = 37, Grade 3/4) | AE: Oedema (All subjects N = 37, Grade 3/4) | AE: Oedema Peripheral (All subjects N = 37, Grade 3/4) | AE: Oral Disorder (All subjects N = 37, Grade 3/4) | AE: Pain In Extremity (All subjects N = 37, Grade 3/4) | AE: Pneumonia (All subjects N = 37, Grade 3/4) | AE: Pollakiuria (All subjects N = 37, Grade 3/4) | AE: Pyrexia (All subjects N = 37, Grade 3/4) | AE: Rash (All subjects N = 37, Grade 3/4) | AE: Rash Erythematous (All subjects N = 37, Grade 3/4) | AE: Rash Papular (All subjects N = 37, Grade 3/4) | AE: Rectal Haemorrhage (All subjects N = 37, Grade 3/4) | AE: Skin Exfoliation (All subjects N = 37, Grade 3/4) | AE: Vomiting (All subjects N = 37, Grade 3/4) | AE: Weight Decreased (All subjects N = 37, Grade 3/4) | AE: Bone Marrow Failure (Regimen 1A N = 16, All Grades) | AE: Cellulitis (Regimen 1A N = 16, All Grades) | AE: Constipation (Regimen 1A N = 16, All Grades) | AE: Cytomegalovirus Infection (Regimen 1A N = 16, All Grades) | AE: Epistaxis (Regimen 1A N = 16, All Grades)
12 (32.4) n (%): AE: Neutropenia/Neutrophil Count Decreased [1]
25 (67.6) n (%): AE: Total (All subjects N = 37, Grade 3/4)
10 (27.0) n (%): AE: Decreased Appetite [1]
7 (18.9) n (%): AE: Vomiting [1]
9 (24.3) n (%): AE: Tumour Lysis Syndrome [1] | AE: Tumour Lysis Syndrome (All subjects N = 37, Grade 3/4)
20 (54.1) n (%): AE: Nausea [1]
4:: Cycle 1 DLTs, Total (1A all doses, N = 16)
6 (37.5) n (%): AE: Anaemia (Regimen 1A N = 16, All Grades)
11 (29.7) n (%): AE: Febrile Neutropenia [1] | AE: Anaemia (All subjects N = 37, Grade 3/4) | AE: Febrile Neutropenia (All subjects N = 37, Grade 3/4) | AE: Neutropenia/Neutrophil Count Decreased (All subjects N = 37, Grade 3/4)
1: Cycle 1 DLTs (1B (d1, d8 Q4W) 150 mg (6 evaluable patients)) | Cycle 1 DLTs (2C (1 week on/3 weeks off) 45 mg (8 evaluable patients)) | Cycle 1 DLTs, Total (2C, N = 8)
Tumor Lysis Syndrome G4: Cycle 1 DLT events observed (2C, N = 8)
4 (10.8) n (%): AE: Pyrexia [1] | AE: White Blood Cell Count Decreased [1]
18 (48.6) n (%): AE: Thrombocytopenia/Platelet Count Decreased [1] | AE: Thrombocytopenia/Platelet Count Decreased (All subjects N = 37, Grade 3/4)
0: Cycle 1 DLTs (1A 350 mg (4 evaluable patients)) | Cycle 1 DLTs (1A (d1 Q3W) 250 mg (3 evaluable patients)) | Cycle 1 DLTs (2A 30 mg (3 evaluable patients)) | Cycle 1 DLTs (2A (2 weeks on/2 weeks off) 20 mg (3 evaluable patients)) | Cycle 1 DLTs, Total (2A all doses, N = 6)
4 (25.0) n (%): AE: Decreased Appetite (Regimen 1A N = 16, All Grades) | AE: Diarrhoea (Regimen 1A N = 16, All Grades)
2 (5.4) n (%): AE: Abdominal Pain [1] | AE: Atrial Fibrillation [1] | AE: Blood Bilirubin Increased [1] | AE: C-Reactive Protein Increased [1] | AE: Constipation [1] | AE: Dyspepsia [1] | AE: Gamma-Glutamyltransferase Increased [1] | AE: General Physical Health Deterioration [1] | AE: Gingival Bleeding [1] | AE: Headache [1] | AE: Hyperuricaemia [1] | AE: Hypocalcaemia [1] | AE: Hyponatraemia [1] | AE: Hypophosphataemia [1] | AE: Leukopenia [1] | AE: Malaise [1] | AE: Mouth Haemorrhage [1] | AE: Pancytopenia [1] | AE: Stomatitis [1] | AE: Hypophosphataemia (All subjects N = 37, Grade 3/4) | AE: Leukopenia (All subjects N = 37, Grade 3/4) | AE: Lipase Increased (All subjects N = 37, Grade 3/4) | AE: Pancytopenia (All subjects N = 37, Grade 3/4)
33 (89.2) n (%): AE: Total [1]
Acute Kidney Injury G4: Cycle 1 DLT events observed (1B, N = 6)
